Experimental data: patent US10584128B2, “Bicyclic dihydropyrimidine-carboxamide derivatives as Rho-Kinase inhibitors” (CHIESI FARMACEUTICI S.p.A., priority 2016, dated 2020)

Experiments:
Rho kinase 1 = Rho kinase 1 (Homo sapiens, UniProt Q13464); test: In vitro Rho kinase inhibitory activity assay (ADP-Glo kit, Myelin Basic Protein substrate); format: biochemical; details: 10 μM ATP, 25° C., read-out: ROCK1 inhibitory activity (Ki, range of activity)
In short: (§1)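 ADP-Glo luminescence assay at 25 °C in 40 mM Tris pH 7.5, 20 mM MgCl2, 0.1 mg/ml BSA, 50 μM DTT, with 2.5 μM myelin basic protein, 10 μM ATP and 1% DMSO. Compound and ROCK1 or ROCK2 were preincubated 30 min, then reacted 1 h. IC50 came from a sigmoidal fit; Ki via Cheng-Prusoff.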

Rho kinase 2 = Rho kinase 2 (Homo sapiens, UniProt O75116); test: as above; format: biochemical; details: 10 μM ATP, 25° C., read-out: ROCK2 inhibitory activity (Ki, range of activity)
In short: as §1

Sequence of Rho kinase 1 (Q13464 whole entry): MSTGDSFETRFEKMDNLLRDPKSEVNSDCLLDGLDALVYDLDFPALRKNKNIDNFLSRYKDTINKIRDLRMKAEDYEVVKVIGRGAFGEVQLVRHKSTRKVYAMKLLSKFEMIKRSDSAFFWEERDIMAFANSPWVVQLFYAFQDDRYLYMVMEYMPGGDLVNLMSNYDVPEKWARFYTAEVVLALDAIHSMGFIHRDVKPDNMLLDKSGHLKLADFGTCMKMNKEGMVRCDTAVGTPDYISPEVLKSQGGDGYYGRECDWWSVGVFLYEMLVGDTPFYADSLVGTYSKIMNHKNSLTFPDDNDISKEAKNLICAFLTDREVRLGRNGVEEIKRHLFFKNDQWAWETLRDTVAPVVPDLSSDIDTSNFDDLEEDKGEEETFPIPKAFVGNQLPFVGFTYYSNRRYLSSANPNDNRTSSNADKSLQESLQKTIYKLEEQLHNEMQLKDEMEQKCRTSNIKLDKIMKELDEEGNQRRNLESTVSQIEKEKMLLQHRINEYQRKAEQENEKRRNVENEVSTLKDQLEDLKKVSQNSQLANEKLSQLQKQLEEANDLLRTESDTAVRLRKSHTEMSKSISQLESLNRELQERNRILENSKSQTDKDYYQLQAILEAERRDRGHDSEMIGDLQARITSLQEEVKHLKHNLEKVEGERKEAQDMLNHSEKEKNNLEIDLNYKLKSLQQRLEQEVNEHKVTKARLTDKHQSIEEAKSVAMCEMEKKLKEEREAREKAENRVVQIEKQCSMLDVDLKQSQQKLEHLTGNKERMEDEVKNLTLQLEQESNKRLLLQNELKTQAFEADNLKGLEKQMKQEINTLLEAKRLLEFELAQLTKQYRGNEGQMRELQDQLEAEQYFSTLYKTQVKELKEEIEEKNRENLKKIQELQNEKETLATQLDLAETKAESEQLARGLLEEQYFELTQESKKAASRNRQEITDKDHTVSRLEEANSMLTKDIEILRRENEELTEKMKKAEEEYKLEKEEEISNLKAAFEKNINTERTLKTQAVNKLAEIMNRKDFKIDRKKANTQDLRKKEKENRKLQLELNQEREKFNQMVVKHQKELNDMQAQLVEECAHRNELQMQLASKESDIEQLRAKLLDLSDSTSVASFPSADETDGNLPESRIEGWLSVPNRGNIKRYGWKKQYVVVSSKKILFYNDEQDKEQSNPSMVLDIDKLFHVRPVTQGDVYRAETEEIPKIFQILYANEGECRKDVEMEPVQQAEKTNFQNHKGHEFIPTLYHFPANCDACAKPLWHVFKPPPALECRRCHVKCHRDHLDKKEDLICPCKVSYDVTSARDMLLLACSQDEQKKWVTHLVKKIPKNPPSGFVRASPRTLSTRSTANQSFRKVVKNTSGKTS
Sequence of Rho kinase 2 (O75116 whole entry): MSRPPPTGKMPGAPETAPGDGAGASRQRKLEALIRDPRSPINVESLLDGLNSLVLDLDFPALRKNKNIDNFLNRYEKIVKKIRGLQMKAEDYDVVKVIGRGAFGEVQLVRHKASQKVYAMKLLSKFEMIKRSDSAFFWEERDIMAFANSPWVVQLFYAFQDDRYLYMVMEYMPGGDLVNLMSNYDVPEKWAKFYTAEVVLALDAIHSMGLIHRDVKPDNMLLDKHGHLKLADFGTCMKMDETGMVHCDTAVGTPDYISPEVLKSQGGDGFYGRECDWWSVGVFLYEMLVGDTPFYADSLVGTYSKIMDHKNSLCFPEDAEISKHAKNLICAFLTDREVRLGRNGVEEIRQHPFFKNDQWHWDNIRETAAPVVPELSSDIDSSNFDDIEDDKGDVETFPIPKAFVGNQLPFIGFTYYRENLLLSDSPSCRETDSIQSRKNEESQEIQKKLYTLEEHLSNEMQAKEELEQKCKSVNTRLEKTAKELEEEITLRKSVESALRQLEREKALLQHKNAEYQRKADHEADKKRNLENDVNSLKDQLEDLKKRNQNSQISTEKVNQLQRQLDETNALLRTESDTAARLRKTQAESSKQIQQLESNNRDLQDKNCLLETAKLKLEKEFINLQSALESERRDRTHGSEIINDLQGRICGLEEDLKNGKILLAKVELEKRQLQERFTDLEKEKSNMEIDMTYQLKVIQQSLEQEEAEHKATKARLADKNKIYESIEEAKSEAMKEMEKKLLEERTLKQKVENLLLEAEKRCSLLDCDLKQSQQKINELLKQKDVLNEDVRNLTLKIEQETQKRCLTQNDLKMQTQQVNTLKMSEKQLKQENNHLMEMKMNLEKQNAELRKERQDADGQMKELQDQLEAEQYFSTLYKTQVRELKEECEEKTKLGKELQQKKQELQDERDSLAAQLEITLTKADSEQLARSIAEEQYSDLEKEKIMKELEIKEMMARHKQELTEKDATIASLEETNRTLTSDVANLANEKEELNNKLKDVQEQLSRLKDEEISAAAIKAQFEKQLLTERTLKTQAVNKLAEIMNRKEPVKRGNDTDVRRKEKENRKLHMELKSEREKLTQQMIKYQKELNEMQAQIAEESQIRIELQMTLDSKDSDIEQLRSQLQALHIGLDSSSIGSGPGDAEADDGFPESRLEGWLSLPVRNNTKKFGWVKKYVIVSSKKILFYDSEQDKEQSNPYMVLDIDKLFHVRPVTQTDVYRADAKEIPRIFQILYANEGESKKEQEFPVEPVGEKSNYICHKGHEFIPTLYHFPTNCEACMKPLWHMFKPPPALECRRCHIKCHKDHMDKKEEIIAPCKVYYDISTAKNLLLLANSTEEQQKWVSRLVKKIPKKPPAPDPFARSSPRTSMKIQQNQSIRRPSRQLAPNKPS

| Compound | Ki (Rho kinase 1) [nM] | Ki (Rho kinase 2) [nM] |
| --- | --- | --- |
| CC1=C(C(=O)Nc2ccc3cnccc3c2)C(c2ccc(C(F)(F)F)c(F)c2)n2nc(C(=O)NCCN3CCCCC3)nc2N1 (stereo not shown) [Example 129, 7-(3-fluoro-4-(trifluoromethyl)phenyl)-N6-(isoquinolin-6-yl)-5-methyl-N2-(2-(piperidin-1-yl)ethyl)-4,7-dihydro-[1,2,4]triazolo[1,5-a]pyrimidine-2,6-dicarboxamide] | < 50 | < 50 |
| CC1=C(C(=O)Nc2ccc3cnccc3c2)C(c2ccc(C(F)(F)F)c(F)c2)n2nc(N)cc2N1 (stereo not shown) [Example 130, 2-Amino-7-(3-fluoro-4-(trifluoromethyl)phenyl)-N-(isoquinolin-6-yl)-5-methyl-4,7-dihydropyrazolo[1,5-a]pyrimidine-6-carboxamide] | < 50 | < 50 |
| CC1=C(C(=O)Nc2ccc3cnccc3c2)C(c2ccc(C(F)(F)F)c(F)c2)n2nc(NC(=O)CCN3CCCCC3)cc2N1 (stereo not shown) [Example 131, 7-(3-Fluoro-4-(trifluoromethyl)phenyl)-N-(isoquinolin-6-yl)-5-methyl-2-(3-(piperidin-1-yl)propanamido)-4,7-dihydropyrazolo[1,5-a]pyrimidine-6-carboxamide] | < 50 | < 50 |
| CC1=C(C(=O)Nc2ccc3cnccc3c2)C(c2ccc(C(F)(F)F)c(F)c2)n2nc(NC(=O)CN3CCCC3)cc2N1 (stereo not shown) [Example 132, 7-(3-fluoro-4-(trifluoromethyl)phenyl)-N-(isoquinolin-6-yl)-5-methyl-2-(2-(pyrrolidin-1-yl)acetamido)-4,7-dihydropyrazolo[1,5-a]pyrimidine-6-carboxamide] | < 50 | < 50 |
| CC1=C(C(=O)Nc2ccc3cnccc3c2)C(c2ccc(C(F)(F)F)c(F)c2)n2nc(NC(=O)COC3CCN(C)CC3)cc2N1 (stereo not shown) [Example 133, 7-(3-fluoro-4-(trifluoromethyl)phenyl)-N-(isoquinolin-6-yl)-5-methyl-2-(2-((1-methylpiperidin-4-yl)oxy)acetamido)-4,7-dihydropyrazolo[1,5-a]pyrimidine-6-carboxamide] | < 50 | < 50 |
| CC1=C(C(=O)Nc2ccc3cnccc3c2)C(c2ccc(C)c(F)c2)n2nc(NC(=O)CN3CCCC3)cc2N1 (stereo not shown) [Example 134, 7-(3-fluoro-4-methylphenyl)-N-(isoquinolin-6-yl)-5-methyl-2-(2-(pyrrolidin-1-yl)acetamido)-4,7-dihydropyrazolo[1,5-a]pyrimidine-6-carboxamide] | < 50 | < 50 |
| CC1=C(C(=O)Nc2ccc3cnccc3c2)C(c2ccc(C(F)(F)F)c(F)c2)n2nc(C3CCN(C(=O)CCN4CCCCC4)CC3)cc2N1 (stereo not shown) [Example 135, 7-(3-fluoro-4-(trifluoromethyl)phenyl)-N-(isoquinolin-6-yl)-5-methyl-2-(1-(3-(piperidin-1-yl)propanoyl)piperidin-4-yl)-4,7-dihydropyrazolo[1,5-a]pyrimidine-6-carboxamide] | < 50 | < 50 |
| CC1=C(C(=O)Nc2ccc3cnccc3c2)C(c2ccc(C(F)(F)F)c(F)c2)n2nc(N3CCN(C)CC3)cc2N1 (stereo not shown) [Example 136, 7-(3-Fluoro-4-(trifluoromethyl)phenyl)-N-(isoquinolin-6-yl)-5-methyl-2-(4-methylpiperazin-1-yl)-4,7-dihydropyrazolo[1,5-a]pyrimidine-6-carboxamide] | < 50 | < 50 |

Next, values leading:

| Ki (Rho kinase 1) [nM] | Ki (Rho kinase 2) [nM] | Compound |
| --- | --- | --- |
| < 50 | < 50 | CC1=C(C(=O)Nc2ccc3cnccc3n2)C(c2ccc(C(F)(F)F)c(F)c2)n2nc(CN(C)C)cc2N1 (stereo not shown) [Example 123, 2-((dimethylamino)methyl)-7-(3-fluoro-4-(trifluoromethyl)phenyl)-5-methyl-N-(1,6-naphthyridin-2-yl)-4,7-dihydropyrazolo[1,5-a]pyrimidine-6-carboxamide] |
| < 50 | < 50 | CC1=C(C(=O)Nc2ccc3cnccc3c2)C(C2Cc3ccccc3C2)n2nc(CN(C)C)cc2N1 (stereo not shown) [Example 124, 7-(2,3-dihydro-1H-inden-2-yl)-2-((dimethylamino)methyl)-N-(isoquinolin-6-yl)-5-methyl-4,7-dihydropyrazolo[1,5-a]pyrimidine-6-carboxamide] |
| < 50 | < 50 | CC1=C(C(=O)Nc2ccc3cnccc3c2)C(c2ccc(C(F)(F)F)c(F)c2)n2nc(C(=O)NC3CC3)cc2N1 (stereo not shown) [Example 125, N2-cyclopropyl-7-(3-fluoro-4-(trifluoromethyl)phenyl)-N6-(isoquinolin-6-yl)-5-methyl-4,7-dihydropyrazolo[1,5-a]pyrimidine-2,6-dicarboxamide] |
| < 50 | < 50 | CC1=C(C(=O)Nc2ccc3cnccc3c2)C(c2ccc(C(F)(F)F)c(F)c2)n2nc(C(=O)N(C)C)cc2N1 (stereo not shown) [Example 126, 7-(3-fluoro-4-(trifluoromethyl)phenyl)-N6-(isoquinolin-6-yl)-N2,N2,5-trimethyl-4,7-dihydropyrazolo[1,5-a]pyrimidine-2,6-dicarboxamide] |
| < 50 | < 50 | CC1=C(C(=O)Nc2ccc3cnccc3c2)C(c2ccc(C(F)(F)F)c(F)c2)n2nc(C(=O)NCCC(=O)N3CCCC3)cc2N1 (stereo not shown) [Example 127, 7-(3-fluoro-4-(trifluoromethyl)phenyl)-N6-(isoquinolin-6-yl)-5-methyl-N2-(3-oxo-3-(pyrrolidin-1-yl)propyl)-4,7-dihydropyrazolo[1,5-a]pyrimidine-2,6-dicarboxamide] |
| < 50 | < 50 | CC1=C(C(=O)Nc2ccc3cnccc3c2)C(c2ccc(C(F)(F)F)c(F)c2)n2nc(C(=O)NC3CC(F)(F)C3)cc2N1 (stereo not shown) [Example 128, N2-(3,3-difluorocyclobutyl)-7-(3-fluoro-4-(trifluoromethyl)phenyl)-N6-(isoquinolin-6-yl)-5-methyl-4,7-dihydropyrazolo[1,5-a]pyrimidine-2,6-dicarboxamide] |
